Source: ChEMBL document CHEMBL3044870, “Effect of clomazone on various market classes of dry beans” (Crop Prot, 2007)

Assays:
Assay type in all cases: organism-based
Details in all cases: in vivo, other
[1] = system: Phaseolus vulgaris; test: Phytotoxicity against Phaseolus vulgaris (kidney beans) assessed as plant height at 2232 g a.i./ha applied pre-emergence 1 to 2 days post-planting measured on day 28 post-emergence (reference value: 37 cm)
[2] = system: Phaseolus vulgaris; test: Phytotoxicity against Phaseolus vulgaris (brown beans) assessed as shoot dry weight at 1116 g a.i./ha applied pre-emergence 1 to 2 days post-planting measured on day 42 post-emergence (reference value: 149 g/m)
[3] = system: Phaseolus vulgaris; test: Phytotoxicity against Phaseolus vulgaris (cranberry beans) assessed as visual crop injury at 1116 g a.i./ha applied pre-emergence 1 to 2 days post-planting measured on day 14 post-emergence relative to control
[4] = system: Phaseolus vulgaris; test: Phytotoxicity against Phaseolus vulgaris (white beans) assessed as plant height at 1116 g a.i./ha applied pre-emergence 1 to 2 days post-planting measured on day 28 post-emergence (reference value: 36 cm)
[5] = system: Phaseolus vulgaris; test: Phytotoxicity against Phaseolus vulgaris (black beans) assessed as yield at 2232 g a.i./ha applied pre-emergence 1 to 2 days post-planting measured on day 42 post-emergence (reference value: 3.6 tons/ha)
[6] = system: Phaseolus vulgaris; test: Phytotoxicity against Phaseolus vulgaris (pinto beans) assessed as visual crop injury at 1116 g a.i./ha applied pre-emergence 1 to 2 days post-planting measured on day 14 post-emergence relative to control
[7] = system: Phaseolus vulgaris; test: Phytotoxicity against Phaseolus vulgaris (cranberry beans) assessed as shoot dry weight at 1116 g a.i./ha applied pre-emergence 1 to 2 days post-planting measured on day 42 post-emergence (reference value: 161 g/m)
[8] = system: Phaseolus vulgaris; test: Phytotoxicity against Phaseolus vulgaris (dry beans) assessed as visual crop injury at 2232 g a.i./ha applied pre-emergence 1 to 2 days post-planting measured on day 7 post-emergence relative to control
[9] = system: Phaseolus vulgaris; test: Phytotoxicity against Phaseolus vulgaris (black beans) assessed as plant height at 2232 g a.i./ha applied pre-emergence 1 to 2 days post-planting measured on day 28 post-emergence (reference value: 34 cm)
[10] = system: Phaseolus vulgaris; test: Phytotoxicity against Phaseolus vulgaris (otebo beans) assessed as visual crop injury at 2232 g a.i./ha applied pre-emergence 1 to 2 days post-planting measured on day 14 post-emergence relative to control
[11] = system: Phaseolus vulgaris; test: Phytotoxicity against Phaseolus vulgaris (yellow eye beans) assessed as shoot dry weight at 1116 g a.i./ha applied pre-emergence 1 to 2 days post-planting measured on day 42 post-emergence (reference value: 162 g/m)
[12] = system: Phaseolus vulgaris; test: Phytotoxicity against Phaseolus vulgaris (cranberry beans) assessed as yield at 2232 g a.i./ha applied pre-emergence 1 to 2 days post-planting measured on day 42 post-emergence (reference value: 3.1 tons/ha)
[13] = system: Phaseolus vulgaris; test: Phytotoxicity against Phaseolus vulgaris (white beans) assessed as shoot dry weight at 1116 g a.i./ha applied pre-emergence 1 to 2 days post-planting measured on day 42 post-emergence (reference value: 175 g/m)
[14] = system: Phaseolus vulgaris; test: Phytotoxicity against Phaseolus vulgaris (kidney beans) assessed as shoot dry weight at 2232 g a.i./ha applied pre-emergence 1 to 2 days post-planting measured on day 42 post-emergence (reference value: 145 g/m)
[15] = system: Phaseolus vulgaris; test: Phytotoxicity against Phaseolus vulgaris (cranberry beans) assessed as shoot dry weight at 2232 g a.i./ha applied pre-emergence 1 to 2 days post-planting measured on day 42 post-emergence (reference value: 161 g/m)
[16] = system: Phaseolus vulgaris; test: Phytotoxicity against Phaseolus vulgaris (yellow eye beans) assessed as plant height at 2232 g a.i./ha applied pre-emergence 1 to 2 days post-planting measured on day 28 post-emergence (reference value: 38 cm)
[17] = system: Phaseolus vulgaris; test: Phytotoxicity against Phaseolus vulgaris (yellow eye beans) assessed as shoot dry weight at 2232 g a.i./ha applied pre-emergence 1 to 2 days post-planting measured on day 42 post-emergence (reference value: 162 g/m)
[18] = system: Phaseolus vulgaris; test: Phytotoxicity against Phaseolus vulgaris (pinto beans) assessed as visual crop injury at 2232 g a.i./ha applied pre-emergence 1 to 2 days post-planting measured on day 14 post-emergence relative to control
[19] = system: Phaseolus vulgaris; test: Phytotoxicity against Phaseolus vulgaris (otebo beans) assessed as shoot dry weight at 1116 g a.i./ha applied pre-emergence 1 to 2 days post-planting measured on day 42 post-emergence (reference value: 188 g/m)
[20] = system: Phaseolus vulgaris; test: Phytotoxicity against Phaseolus vulgaris (cranberry beans) assessed as visual crop injury at 2232 g a.i./ha applied pre-emergence 1 to 2 days post-planting measured on day 14 post-emergence relative to control
[21] = system: Phaseolus vulgaris; test: Phytotoxicity against Phaseolus vulgaris (yellow eye beans) assessed as yield at 2232 g a.i./ha applied pre-emergence 1 to 2 days post-planting measured on day 42 post-emergence (reference value: 2.3 tons/ha)
[22] = system: Phaseolus vulgaris; test: Phytotoxicity against Phaseolus vulgaris (kidney beans) assessed as shoot dry weight at 1116 g a.i./ha applied pre-emergence 1 to 2 days post-planting measured on day 42 post-emergence (reference value: 145 g/m)
[23] = system: Phaseolus vulgaris; test: Phytotoxicity against Phaseolus vulgaris (pinto beans) assessed as shoot dry weight at 1116 g a.i./ha applied pre-emergence 1 to 2 days post-planting measured on day 42 post-emergence (reference value: 168 g/m)
[24] = system: Phaseolus vulgaris; test: Phytotoxicity against Phaseolus vulgaris (otebo beans) assessed as plant height at 1116 g a.i./ha applied pre-emergence 1 to 2 days post-planting measured on day 28 post-emergence (reference value: 38 cm)
[25] = system: Phaseolus vulgaris; test: Phytotoxicity against Phaseolus vulgaris (black beans) assessed as shoot dry weight at 1116 g a.i./ha applied pre-emergence 1 to 2 days post-planting measured on day 42 post-emergence (reference value: 165 g/m)
[26] = system: Phaseolus vulgaris; test: Phytotoxicity against Phaseolus vulgaris (dry beans) assessed as visual crop injury at 1116 g a.i./ha applied pre-emergence 1 to 2 days post-planting measured on day 7 post-emergence relative to control
[27] = system: Phaseolus vulgaris; test: Phytotoxicity against Phaseolus vulgaris (otebo beans) assessed as shoot dry weight at 2232 g a.i./ha applied pre-emergence 1 to 2 days post-planting measured on day 42 post-emergence (reference value: 188 g/m)
[28] = system: Phaseolus vulgaris; test: Phytotoxicity against Phaseolus vulgaris (brown beans) assessed as yield at 1116 g a.i./ha applied pre-emergence 1 to 2 days post-planting measured on day 42 post-emergence (reference value: 2.5 tons/ha)
[29] = system: Phaseolus vulgaris; test: Phytotoxicity against Phaseolus vulgaris (dry beans) assessed as visual crop injury at 2232 g a.i./ha applied pre-emergence 1 to 2 days post-planting measured on day 28 post-emergence relative to control
[30] = system: Phaseolus vulgaris; test: Phytotoxicity against Phaseolus vulgaris (pinto beans) assessed as plant height at 2232 g a.i./ha applied pre-emergence 1 to 2 days post-planting measured on day 28 post-emergence (reference value: 38 cm)
[31] = system: Phaseolus vulgaris; test: Phytotoxicity against Phaseolus vulgaris (pinto beans) assessed as yield at 1116 g a.i./ha applied pre-emergence 1 to 2 days post-planting measured on day 42 post-emergence (reference value: 3.1 tons/ha)

SMILES: CC1(C)CON(Cc2ccccc2Cl)C1=O [CLOMAZONE]
- Activity [1]: 33 cm
- Activity [2]: 139 g/m
- Activity [3]: 6%
- Activity [4]: 34 cm
- Crop_yield [5]: 3.3 tons/ha
- Activity [6]: 4%
- Activity [7]: 150 g/m
- Activity [8]: 11%
- Activity [9]: 30 cm
- Activity [10]: 11%
- Activity [11]: 160 g/m
- Crop_yield [12]: 3 tons/ha
- Activity [13]: 174 g/m
- Activity [14]: 116 g/m
- Activity [15]: 137 g/m
- Activity [16]: 32 cm
- Activity [17]: 130 g/m
- Activity [18]: 11%
- Activity [19]: 189 g/m
- Activity [20]: 14%
- Crop_yield [21]: 2.5 tons/ha
- Activity [22]: 142 g/m
- Activity [23]: 166 g/m
- Activity [24]: 37 cm
- Activity [25]: 167 g/m
- Activity [26]: 5%
- Activity [27]: 168 g/m
- Crop_yield [28]: 2.6 tons/ha
- Activity [29]: 4%
- Activity [30]: 32 cm
- Crop_yield [31]: 3.1 tons/ha
